Earlier results, collected in patent US5843995A, “Inhibition of HIV-1 replication using oligocarbamate derivatives” (University of Medicine and Dentistry of New Jersey, priority 1997, dated 1998).

Test system: HIV-1
Conditions: cells pretreated with peptide 24 hours prior to infection

For `CC(=O)N[C@H](CCCNC(=N)N)C(=O)N[C@H](CCCNC(=N)N)C(=O)N[C@H](CCCNC(=N)N)C(=O)N[C@H](CCCNC(=N)N)C(=O)N[C@H](CCCNC(=N)N)C(=O)N[C@H](CCCNC(=N)N)C(=O)N[C@H](CCCNC(=N)N)C(=O)N[C@H](CCCNC(=N)N)C(=O)N[C@H](CCCNC(=N)N)C(N)=O` [N-acetyl-(DArg)9 -NH2], the “mechanism of antiviral activity” value is given as “via inhibition of viral entry”.
